# Laboratory results reported in publication PMC1976805, “Preclinical pharmacokinetics of benznidazole” (British Journal of Cancer, 1984).
# Where two headings read alike, the source gives them in different places.
# Experiments:
# [1] = Penetration into brain and peripheral nerve in dogs; assay type: in vivo, dog; details: 25 mg kg-1 oral; for Kp: collie crossbred, 25 mg kg-1, two crossbred dogs; for Kp / Kp at 4 h / Kp at 1 h / Kp at 2 h / Kp at 3 h: dog, po
# Text: Br. J. Cancer (1984), 50, 291-303 Preclinical pharmacokinetics of benznidazole P. Workman', R.A.S. White2, M.I. Walton', L.N. Owen2* & P.R. Twentyman' 1MRC Clinical Oncology and Radiotherapeutics Unit, MRC Centre, Hills Road, Cambridge CB2 2QH, and 2Department of Clinical Veterinary Medicine, University of Cambridge, Madingley Road, Cambridge CB3 OES, UK. […] We have investigated the detailed pharmacokinetics of benznidazole in mice, dogs and sheep to provide a data base for the estimation of doses required for chemosensitization in man. Pharmacokinetic behaviour was linear except at high doses in mice. Absorption was fairly rapid and bioavailability was complete following both i.p. administration in mice and oral administration in dogs. Elimination t4 values were longer than for MISO, being 90 min in mice, 4-5 h in sheep and 9-11 h in dogs. At doses giving linear kinetics, peak whole plasma concentrations per administered mgkg-1 were 0.75 jigml-1 for the i.p. route in mice and 1.8jugmlP' for the oral route in dogs. Though between 39 and 59% of plasma benznidazole was bound to protein, tissue penetration was generally good. Tissue/whole plasma ratios ranged from 59-99% for transplantable mouse tumours and from 14-70% for spontaneous dog neoplasms. Nervous tissue penetration was similar to that in tumours: brain/whole plasma ratios averaged between 61 and 76% in mice and 42% in dogs, while peripheral nerve/whole plasma ratios in dogs averaged 74%. Mean liver/whole plasma ratios were 42% and 71% in BALB/c and C3H/He mouse strains respectively. Only -5% of the administered dose was excreted unchanged in the urine, indicating the likelihood of extensive metabolism. […] Enhancement of CCNU response is likely to require circulating benznidazole concentrations of 10-30 pgml-1 and we predict that these will be obtained with oral doses of 6-20 mgkg- 1 in man. […] This enhancement, or chemosensitization, is usually greater than that seen in dose-limiting normal tissues, resulting in an improved therapeutic index. Because of the relatively high doses of MISO usually required for chemosensitization in mice (see above refs), and also because of its neurotoxicity in man (Dische et al., 1977), we have been interested in finding an improved chemosensitizer. […] The lipophilic ana- logue benznidazole (N-benzyl-(2-nitroimidazolyl) acetamide, Ro 07-1051; Radanil; Roche), the structure of which is shown in Figure 1, was selected for detailed study because of its ability to *Present address: Animal Health Trust, Small Animals Centre, Lanwades Park, Kennett, Newmarket, Suffolk CB8 7PN, UK. Correspondence: P. Workman. […] These findings have been confirmed independently by Siemann et al. (1983). Although benznidazole is used quite widely in South America to treat patients with the trypanosomal infection Chagas' disease or with mucotaneous Leishmaniasis (Barclay et al., 1978; Cerisola et al., 1978; Coura et al., 1978; Fava et al., 1978), apart from our preliminary studies (White et al., 1982) the only published data on its pharmaco- kinetics are for human plasma concentrations measured by polarography (Raaflub & Ziegler, 1979; Raaflub, 1980). Here we describe the pharmacokinetics of benznidazole in the mouse, sheep and dog, as determined by high-performance liquid chromatography (HPLC). […] The Macmillan Press Ltd., 1984 292 P. WORKMAN et al. particularly on plasma and tumour concentrations, have been used as a basis for the estimation of the benznidazole doses required in a Phase I trial of benznidazole plus CCNU, at present ongoing in our Unit. Materials and methods Animals and tumours Adult inbred male BALB/c mice were obtained from OLAC (Southern) Ltd. (Bicester, UK) and adult inbred C3H/He mice of both sexes from OLAC and our own breeding colony. Mice were housed in plastic cages on sawdust bedding made from soft white woods, and allowed laboratory chow and water ad lib. They were used at 20-35 g body wt.
# [2] = Plasma pharmacokinetics in man (literature); assay type: in vivo; details: oral doses of 6-20 mg kg-1, extrapolated from dog and literature human data
# [3] = cited from earlier work
# [4] = tested on: KHT tumour; details: mice, cited from earlier work
# [5] = design: method as in earlier work; details: patients, 5 mg kg-1 day-1 for 30 days, side effects incl. peripheral neuropathy observed in these studies, ref Barclay et al., 1978, Cerisola et al., Coura et al., Fava et al.; cited from earlier work
# [6] = man, average daily dose 3.5 mg kg-1, literature
# [7] = benznidazole 78 mg kg-1 i.p., ref Twentyman & Workman, 1983, Siemann et al.
smiles,measurement,setting,value
"O=C(Cn1ccnc1[N+](=O)[O-])NCc1ccccc1 [benznidazole, N-benzyl-(2-nitroimidazolyl) acetamide]",Kp,"[1]; brain, 1-4 h, read-out: brain/whole plasma ratio, overall mean (s.e., n=8)",0.42
same,Kp,"[1]; peripheral nerve, 1-4 h, read-out: peripheral nerve/whole plasma ratio, mean (s.e., n=7)",0.74
same,brain concentration,"[1]; dog G, 1 h",1.1 µg/g
same,peripheral nerve concentration,"[1]; dog G, 1 h",1.3 µg/g
same,plasma concentration,"[1]; dog G, 1 h",3100 ng/mL
same,brain concentration,"[1]; dog G, 2 h",1.5 µg/g
same,peripheral nerve concentration,"[1]; dog G, 2 h",3.4 µg/g
same,plasma concentration,"[1]; dog G, 2 h",3800 ng/mL
same,brain concentration,"[1]; dog G, 3 h",2.1 µg/g
same,plasma concentration,"[1]; dog G, 3 h",4300 ng/mL
same,brain concentration,"[1]; dog G, 4 h",1.1 µg/g
same,peripheral nerve concentration,"[1]; dog G, 4 h",4.0 µg/g
same,plasma concentration,"[1]; dog G, 4 h",4100 ng/mL
same,brain concentration,"[1]; dog H, 1 h",11.6 µg/g
same,peripheral nerve concentration,"[1]; dog H, 1 h",14.0 µg/g
same,plasma concentration,"[1]; dog H, 1 h",23100 ng/mL
same,brain concentration,"[1]; dog H, 2 h",10.0 µg/g
same,peripheral nerve concentration,"[1]; dog H, 2 h",15.5 µg/g
same,plasma concentration,"[1]; dog H, 2 h",22200 ng/mL
same,brain concentration,"[1]; dog H, 3 h",8.5 µg/g
same,peripheral nerve concentration,"[1]; dog H, 3 h",14.7 µg/g
same,plasma concentration,"[1]; dog H, 3 h",18700 ng/mL
same,brain concentration,"[1]; dog H, 4 h",7.9 µg/g
same,peripheral nerve concentration,"[1]; dog H, 4 h",15.6 µg/g
same,plasma concentration,"[1]; dog H, 4 h",18500 ng/mL
same,Kp at 4 h,"[1]; brain, 25 mg kg-1, dog H, 4 h, read-out: brain/plasma ratio",0.43
same,Kp at 1 h,"[1]; brain/plasma, 25 mg kg-1, dog G, 1 h, read-out: brain/plasma ratio",0.35
same,Kp at 2 h,"[1]; brain/plasma, 25 mg kg-1, dog G, 2 h, read-out: brain/plasma ratio",0.39
same,Kp at 3 h,"[1]; brain/plasma, 25 mg kg-1, dog G, 3 h, read-out: brain/plasma ratio",0.49
same,Kp at 4 h,"[1]; brain/plasma, 25 mg kg-1, dog G, 4 h, read-out: brain/plasma ratio",0.26
same,Kp at 1 h,"[1]; brain/plasma, 25 mg kg-1, dog H, 1 h, read-out: brain/plasma ratio",0.5
same,Kp at 2 h,"[1]; brain/plasma, 25 mg kg-1, dog H, 2 h, read-out: brain/plasma ratio",0.45
same,Kp at 3 h,"[1]; brain/plasma, 25 mg kg-1, dog H, 3 h, read-out: brain/plasma ratio",0.45
same,Kp at 3 h,"[1]; peripheral nerve, 25 mg kg-1, dog H, 3 h, read-out: peripheral nerve/plasma ratio",0.78
same,Kp at 4 h,"[1]; peripheral nerve, 25 mg kg-1, dog H, 4 h, read-out: peripheral nerve/plasma ratio",0.84
same,Kp at 1 h,"[1]; peripheral nerve/plasma, 25 mg kg-1, dog G, 1 h, read-out: peripheral nerve/plasma ratio",0.41
same,Kp at 2 h,"[1]; peripheral nerve/plasma, 25 mg kg-1, dog G, 2 h, read-out: peripheral nerve/plasma ratio",0.9
same,Kp at 4 h,"[1]; peripheral nerve/plasma, 25 mg kg-1, dog G, 4 h, read-out: peripheral nerve/plasma ratio",0.96
same,Kp at 1 h,"[1]; peripheral nerve/plasma, 25 mg kg-1, dog H, 1 h, read-out: peripheral nerve/plasma ratio",0.6
same,Kp at 2 h,"[1]; peripheral nerve/plasma, 25 mg kg-1, dog H, 2 h, read-out: peripheral nerve/plasma ratio",0.7
same,"brain/whole plasma ratio, overall mean (s.e., n=8)","[1]; two crossbred dogs, 1-4 h",42+3%
same,"peripheral nerve/whole plasma ratio, mean (s.e., n=7)","[1]; two crossbred dogs, 1-4 h",74+7%
same,predicted circulating (peak whole plasma) concentrations,[2],10-30 micrograms ml-1
same,mean t1/2,"[3]; humans, low doses, polarographic analysis, ref Raaflub & Ziegler (1979) and Raaflub (1980)",12 to 14 h
same,"mean steady state maximum plasma concentration (s.e., n=6)",[3]; [6],12.4 ± 0.7 µg/mL
same,"mean steady state minimum plasma concentration (s.e., n=6)",[3]; [6],8.3 ± 0.6 µg/mL
same,peak time,"[3]; man, low oral doses, ref Raaflub & Ziegler, 1979",3 to 4 h
same,"mean peak plasma concentration per administered mg kg-1 (s.e., n=7)","[3]; man, oral, low doses (mean 1.73 mg kg-1), ref Raaflub & Ziegler, 1979",1.48 + 0.06 µg ml-1
same,enhancement factor of CCNU response in normal tissues,[4]; [7],1.2-1.4
same,enhancement factor of tumour response to CCNU,[4]; [7],1.5-2
same,i.p. dose giving clear enhancement of KHT tumour response to CCNU (at least as low as),"[4]; ref Workman & Twentyman, 1982",≤ 13 mg/kg
same,tolerability,[5],well tolerated
